According to ChEMBL document CHEMBL1143633, “Synthesis and cytotoxic evaluation of combretafurazans” (J Med Chem, 2005):

test system: SH-SY5Y; experiment: Cytotoxicity against SH-SY5Y human neuroblastoma cell line was determined; format: functional, cell-based

Structure (SMILES) | IC50 [nM]
COc1ccc(-c2nonc2-c2cc(OC)c(OC)c(OC)c2)cc1 | 8.9
COc1ccc(-c2nonc2-c2cc(OC)c(OC)c(OC)c2)cc1N | 1.6
COc1ccc(C(=O)C(=O)c2cc(OC)c(OC)c(OC)c2)cc1O | 524
COc1ccc(-c2nonc2-c2cc(OC)c(O)c(OC)c2)cc1O | 17.5
COc1ccc(C(=N/O)/C(=N\O)c2cc(OC)c(OC)c(OC)c2)cc1O | 254
COc1ccc(-c2nonc2-c2cc(OC)c(OC)c(OC)c2)cc1O | 1.4
COc1ccc(-c2nonc2-c2cc(OC)c(OC)c(OC)c2)cc1[N+](=O)[O-] | 72.5
COc1ccc(/C=C\c2cc(OC)c(OC)c(OC)c2)cc1O [COMBRETASTATIN A4] | 5.8
COc1ccc(-c2nonc2-c2cc(OC)c(O)c(OC)c2)cc1 | 196
